Data: patent publication US20020042079A1, “METHODS AND AGENTS FOR MEASURING AND CONTROLLING MULTIDRUG RESISTANCE” (priority 1994, published 2002)
“Also recorded” adds a separate entry of the source.

Legend:
MCF-7/ADR cells [1] = test: Lysosomal acidification by DAMP immuno-electron microscopy; type: cell-based, human; parameters: dose or concentration left out as unconfirmed; details: MCF-7/ADR cells treated prior to DAMP
Experimental: pH in the lysosomes: The pH in the lysosomes was assayed both with light and electron microscopy. Light microscopy: […] Cell Biol., 105:2723-2733 (1987)]. The pH was calibrated as described above. Electron microscopy: The cells were incubated with the weak base DAMP, fixed, probed with an mouse antibody to DNP (cross-reacts with DAMP) and visualized with gold-conjugated anti-mouse antibodies. […] Then DAMP was added to a final concentration of at 70 μM and the cells were incubated for another 45 minutes. The medium was replaced with phosphate buffered saline (PBS), pH 7.4, with 4% paraformaldehyde and 0.75% gluteraldehyde. […] They were then stained and visualized under the electron microscope.

[2] = test system: fresh liver and kidney tissue from mice; test: In vitro acidification of organelles from fresh tissue; type: biochemical
Source text: The in vitro acidification assay used purified microsomes that had been resuspended in a salt buffer without additional cytosolic or nuclear components.

MDA-A1 cells = test: Acridine orange labeling of acidic compartments; type: cell-based, human; details: 10 μM Tamoxifen, estrogen receptor negative cells
Experimental: (§1) Labeling of Cells with Acridine Orange: To examine intracellular acidic compartments, acridine orange (6 μM in medium from a 10 mM stock in water) was added directly to cells in the Lab-Tek chambers and the cells were incubated for 15 minutes. Cells in the presence of acridine orange were then examined utilizing an excitation at 488 nm and dual emission confocal images were simultaneously recorded using both a 530-30 band pass barrier filter (green fluorescence) and a 605 nm long pass barrier filter (red fluorescence). Optical sections of the fluorescent samples were recorded at 0.5 micron intervals with a 60×oil immersion objective.
There is red fluorescence in punctate cytoplasmic organelles and in a perinuclear region.

CHO cells = test: Acridine orange labeling of acidic compartments; type: cell-based, Chinese Hamster; details: 10 μM tamoxifen, thirty minutes
Experimental: as §1
CHO cells are often used for transfection studies with Pgp since endogenous levels of the protein are non-existent, or too low to be measured [Debenham et al., Mol. Cell Biol., 2:881-889 (1982)].

MCF-7adr cells [3] = test: Bodipy-ceramide and Bodipy-lactalbumin labeling of TGN and pericentriolar recycling compartment; type: cell-based, human; details: tamoxifen treatment of MCF-7adr cells
Source text: Endocytotic pathway (fourth row): To examine internalization, Bodipy-lactalbumin (Bodipy-Lac, Molecular Probes, Eugene, Oreg.) was used as a fluid phase marker.
Conversion of Bodipy-ceramide to Bodipy-sphingomyelin (in cis-Golgi) is associated with the movement of the newly synthesized fluorescent lipid to the trans-Golgi network (TGN). As the Bodipy-sphingomyelin concentration increases within the TGN and secretory vesicles, a long wavelength shift in fluorescence occurs that results in red fluorescent structures (TGN and secretory vesicles) against a green fluorescent background. […] To examine internalization, Bodipy-lactalbumin (Bodipy-Lac, Molecular Probes, Eugene, Oreg.) was used as a fluid phase marker.

MCF-7/ADR cells [4] = test: Transport of BODIPY-transferrin from recycling endosomes to cell surface
MCF-7adr cells [5] = test: Intravesicular pH with SNAFL-calcein; type: cell-based, human; details: monensin 10 μg/ml for 30 minutes
Source text: FIG. 6a-6c show Measurements of Intravesicular pH utilizing SNAFL-calcein. […] In contrast, significant pH gradients, including an acidic pericentriolar labeling is observed in MCF7adr cells (FIG. 6b). The intravesicular pH in drug-resistant MCF-7adr cells (white bars) is […] than the vesicular pH of the drug-sensitive parental MCF-7 (black bars) (FIG. 6c). This acidic pH difference is reduced by treatment of MCF-7adr cells with monensin (dark grey). Methods: The acetoxymethylester derivative of SNAFL-calcein (15 μg/ml) (a radiometric fluorescent probe for pH) was added to both MCF-7 and MCF-7adr cells. The ester linked fluorescent probe enters the cell passively where the esters are hydrolyzed by esterases located in the cytoplasm and intracellular vesicles. […] The cells were incubated at 37° C. for 45 minutes and then examined in with the Insight confocal fluorescence. […] To obtain a quantitative relationship between emission ratios and pH, each SNAFL-calcein stained cell line was exposed to a buffer at a known pH containing nigericin/high K^+ (18 μM/150 mM KCl). […] These values were then incorporated into a pH imaging routine that provides a direct read-out of pH values for individual intracellular compartments that are queried on the computer screen. […] (c) To prepare histograms of vesicular pH, 5 vesicles within a confocal section were analyzed/cell (20 cells per cell type). […]

| SMILES | average density of gold particles (anti-DNP labeling of DAMP) per lysosomal area (MCF-7/ADR cells [1]) | effect on in vitro acidification compared with MCF-7/ADR microsomes [2] | red acridine orange fluorescence after Tamoxifen (MDA-A1 cells) | red acridine orange fluorescence after Tamoxifen (MDA-A1 cells; listed as tamoxifen) | red acridine orange fluorescence after Tamoxifen (CHO cells) | TGN structure (Bodipy-ceramide labeling) (MCF-7adr cells [3]) | structure of the PRC (bodipy-lactalbumin labeling) (MCF-7adr cells [3]) | time for intracellular BODIPY-transferrin to decrease to 50% of its steady-state level (MCF-7/ADR cells [4]; 10 μM tamoxifen) [min] | BODIPY-transferrin remaining with cells after 25 minutes (MCF-7/ADR cells [4]; Tamoxifen 10 μM) | BODIPY-transferrin remaining with cells after five minutes (MCF-7/ADR cells [4]; Tamoxifen 10 μM) | pH of acidic vesicular compartments after treatment (MCF-7adr cells [5]) |
| --- | --- | --- | --- | --- | --- | --- | --- | --- | --- | --- | --- |
| CC/C(=C(\c1ccccc1)c1ccc(OCCN(C)C)cc1)c1ccccc1 [Tamoxifen] | 2.0 /μm^2 | similar | substantial reduction in the red acridine orange fluorescence | substantial decrease in the red acridine orange fluorescence | substantially reduced the red acridine orange fluorescence; also recorded: loss of red-orange fluorescence from the cytoplasm of the CHO cells | produces a similar fragmentation of TGN structure | disrupts the structure of the PRC | 30 | More than 60% | more than 90% |  |
| CC[C@@]1([C@@H]2O[C@@H]([C@H]3O[C@@](O)(CO)[C@H](C)C[C@@H]3C)C[C@@H]2C)CC[C@H]([C@]2(C)CC[C@]3(C[C@H](O)[C@@H](C)[C@@H]([C@@H](C)[C@@H](OC)[C@H](C)C(=O)O)O3)O2)O1 [Monensin] | zero |  |  |  |  |  |  |  |  |  | alkalization of acidic vesicular compartments to pH values observed for drug sensitive MCF-7 cells |
